Measurements taken from patent US12371454B2, “Cyclic peptide compound having Kras inhibitory action” (priority 2019, dated 2025).
Positions of bridges follow the written chain, without caps; N, C: chain ends. Non-standard residues stand in square brackets, D forms with d. Residues, ends and D or L forms follow the SMILES beside them. *: point of attachment. hPhe(3-Cl-4-CF3) = N[C@@H](CCc1ccc(C(F)(F)F)c(Cl)c1)C(=O)O; NMePhe(4-CF3) = CN[C@@H](Cc1ccc(C(F)(F)F)cc1)C(=O)O; NMeAbu(4,4,4-F3) = CN[C@@H](CC(F)(F)F)C(=O)O; NMePhe(4-Me) = CN[C@@H](Cc1ccc(C)cc1)C(=O)O; NMePhe(2-Me) = CN[C@@H](Cc1ccccc1C)C(=O)O; NMeAla(cPent) = CN[C@@H](CC1CCCC1)C(=O)O; NMeGly(cPent) = CN[C@H](C(=O)O)C1CCCC1; NMeGly(cBu) = CN[C@H](C(=O)O)C1CCC1; NMeCha = CN[C@@H](CC1CCCCC1)C(=O)O; NMeCba = CN[C@@H](CC1CCC1)C(=O)O; NMeChg = CN[C@H](C(=O)O)C1CCCCC1; NMeI = CC[C@H](C)[C@H](NC)C(=O)O; NMeT = CN[C@H](C(=O)O)[C@@H](C)O; NMeD = CN[C@@H](CC(=O)O)C(=O)O; NMeL = CN[C@@H](CC(C)C)C(=O)O; NMeNva = CCC[C@H](NC)C(=O)O; NMeV = CN[C@H](C(=O)O)C(C)C; d(β3hA) = C[C@@H](N)CC(=O)O; NMeAbu = CC[C@H](NC)C(=O)O; NMeS = CN[C@@H](CO)C(=O)O; Morpholide = C1CN(*)CCO1; NMeA = CN[C@@H](C)C(=O)O; Piperidide = C1CCN(*)CC1; Pyrrolidide = C1CCN(*)C1; Ac5c = NC1(C(=O)O)CCCC1; Aze = O=C(O)[C@@H]1CCN1; Isopentyl = CC(C)CC*; Sar = CNCC(=O)O; Propyl = CCC*

Columns and labels:
[1] = test system: Human pancreatic cancer cell line AsPC-1; experiment: Measurement of AsPC-1 cell growth inhibition (AsPC-1 CGI); assay type: cell-based; settings: 96 h
Summary of the method: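 AsPC-1 cells in 15% FBS RPMI-1640 were exposed to test compound for 96 hours at 37° C, with CellTiter-Glo as endpoint.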

[2] = target: T1, Kras and SOS1 (biotin-tagged human Kras loaded with GDP, His-tagged human SOS1) (Homo sapiens, UniProt P01116, G12D); experiment: Protein-protein interaction inhibition between Kras and SOS1 (KrasGl2D-SOS PPI) using AlphaScreen; assay type: binding; settings: AlphaScreen; biotin-tagged human Kras loaded with GDP, His-tagged human SOS1; read-out: KRAS G12D-SOS PPI IC50
T1 construct: made in house; host or cells: E. coli (stated for Kras only)
T1 sequence (P01116 1-188 isoform P01116-2 G12D): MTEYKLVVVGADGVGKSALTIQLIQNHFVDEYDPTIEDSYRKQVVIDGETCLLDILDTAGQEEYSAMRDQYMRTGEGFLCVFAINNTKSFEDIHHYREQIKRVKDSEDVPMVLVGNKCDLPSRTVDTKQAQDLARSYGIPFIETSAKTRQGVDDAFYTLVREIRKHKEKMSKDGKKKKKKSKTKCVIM
Summary of the method: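 Energy transfer from nickel-chelate donor beads bound to His-SOS1 to streptavidin acceptor beads bound to biotin-Kras, expressed in E. coli and loaded with GDP after purification, was monitored. Donors were excited at 680 nm; singlet oxygen reaching acceptors gave emission read at 520-620 nm.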

| Structure (SMILES) | IC50 [1] | IC50 [2] |
| --- | --- | --- |
| CC[C@H](C)[C@@H]1NC(=O)[C@H](C2CCC2)N(C)C(=O)C[C@@H](C(=O)N2CCOCC2)N(C)C(=O)[C@H](C2CCCCC2)N(C)C(=O)C2(CCCC2)NC(=O)[C@@H]2CCCN2C(=O)[C@H](CCc2ccc(C(F)(F)F)c(Cl)c2)NC(=O)CN(C)C(=O)[C@H](CC2CCCC2)N(C)C(=O)CN(C)C(=O)CN(C)C1=O [Compound 434] ([NMeGly(cBu)]I[Sar][Sar][NMeAla(cPent)][Sar][hPhe(3-Cl-4-CF3)]P[Ac5c][NMeChg][NMeD]-Morpholide; lactam N-11) | 50 to 100 nM | 0.52 nM |
| CC[C@H](C)[C@@H]1NC(=O)[C@H]([C@@H](C)O)N(C)C(=O)C[C@@H](C(=O)N2CCCCC2)N(C)C(=O)[C@H](C2CCCCC2)N(C)C(=O)C2(CCCC2)NC(=O)[C@@H]2CCCN2C(=O)[C@H](CCc2ccc(C(F)(F)F)c(Cl)c2)NC(=O)CN(C)C(=O)[C@H](CC2CCCCC2)N(C)C(=O)CN(C)C(=O)CN(C)C1=O [Compound 756] ([NMeT]I[Sar][Sar][NMeCha][Sar][hPhe(3-Cl-4-CF3)]P[Ac5c][NMeChg][NMeD]-Piperidide; lactam N-11) | 100 to 500 nM | 0.58 nM |
| CCC[C@H]1C(=O)N[C@@H]([C@@H](C)CC)C(=O)N(C)CC(=O)N(C)CC(=O)N(C)[C@@H](CC2CCCC2)C(=O)N(C)CC(=O)N[C@@H](CCc2ccc(C(F)(F)F)c(Cl)c2)C(=O)N2CCC[C@H]2C(=O)NC2(CCCC2)C(=O)N(C)[C@@H](C2CCCCC2)C(=O)N(C)[C@H](C(=O)N2CCCC2)CC(=O)N1C [Compound 1975] ([NMeNva]I[Sar][Sar][NMeAla(cPent)][Sar][hPhe(3-Cl-4-CF3)]P[Ac5c][NMeChg][NMeD]-Pyrrolidide; lactam N-11) | 50 to 100 nM | 0.51 nM |
| CC[C@H](C)[C@@H]1NC(=O)[C@H](CC(C)C)N(C)C(=O)C[C@@H](C(=O)N2CCOCC2)N(C)C(=O)[C@H](C2CCCCC2)N(C)C(=O)C2(CCCC2)NC(=O)[C@@H]2CCCN2C(=O)[C@H](CCc2ccc(C(F)(F)F)c(Cl)c2)NC(=O)CN(C)C(=O)[C@H](Cc2ccc(C(F)(F)F)cc2)N(C)C(=O)CN(C)C(=O)CN(C)C1=O [Compound 1948] ([NMeL]I[Sar][Sar][NMePhe(4-CF3)][Sar][hPhe(3-Cl-4-CF3)]P[Ac5c][NMeChg][NMeD]-Morpholide; lactam N-11) | 20 to 50 nM | 0.54 nM |
| CC[C@H](C)[C@@H]1NC(=O)[C@H](CC(C)C)N(C)C(=O)C[C@@H](C(=O)N2CCCCC2)N(C)C(=O)[C@H](C2CCCCC2)N(C)C(=O)C2(CCCC2)NC(=O)[C@@H]2CCCN2C(=O)[C@H](CCc2ccc(C(F)(F)F)c(Cl)c2)NC(=O)CN(C)C(=O)[C@H]([C@@H](C)CC)N(C)C(=O)CN(C)C(=O)CN(C)C1=O [Compound 1686] ([NMeL]I[Sar][Sar][NMeI][Sar][hPhe(3-Cl-4-CF3)]P[Ac5c][NMeChg][NMeD]-Piperidide; lactam N-11) | 100 to 500 nM | 1.5 nM |
| CC[C@H](C)[C@@H]1NC(=O)[C@H](CC(C)C)N(C)C(=O)C[C@@H](C)NC(=O)[C@H]([C@@H](C)CC)N(C)C(=O)C2(CCCC2)NC(=O)[C@@H]2CCCN2C(=O)[C@H](CCc2ccc(C(F)(F)F)c(Cl)c2)NC(=O)CN(C)C(=O)[C@H](CC2CCCCC2)N(C)C(=O)CN(C)C(=O)CN(C)C1=O [Compound 708] (cyclo([Ac5c][NMeI][d(β3hA)][NMeL]I[Sar][Sar][NMeCha][Sar][hPhe(3-Cl-4-CF3)]P)) | 50 to 100 nM | 11 nM |
| CC[C@H](C)[C@@H]1NC(=O)[C@H](CC2CCC2)N(C)C(=O)C[C@@H](C(=O)N2CCCCC2)N(C)C(=O)[C@H](C(C)C)N(C)C(=O)C2(CCCC2)NC(=O)[C@@H]2CCCN2C(=O)[C@H](CCc2ccc(C(F)(F)F)c(Cl)c2)NC(=O)CN(C)C(=O)[C@H](CC2CCCCC2)N(C)C(=O)[C@@H]2CCN2C(=O)[C@H](C)N(C)C1=O [Compound 1114] ([NMeCba]I[NMeA][Aze][NMeCha][Sar][hPhe(3-Cl-4-CF3)]P[Ac5c][NMeV][NMeD]-Piperidide; lactam N-11) | 100 to 500 nM | 11 nM |
| CC[C@H](C)[C@@H]1NC(=O)[C@H](CC(C)C)N(C)C(=O)C[C@@H](C(=O)N2CCCCC2)N(C)C(=O)[C@H](C(C)C)N(C)C(=O)C2(CCCC2)NC(=O)[C@@H]2CCCN2C(=O)[C@H](CCc2ccc(C(F)(F)F)c(Cl)c2)NC(=O)CN(C)C(=O)[C@H](Cc2ccccc2C)N(C)C(=O)CN(C)C(=O)CN(C)C1=O [Compound 1584] ([NMeL]I[Sar][Sar][NMePhe(2-Me)][Sar][hPhe(3-Cl-4-CF3)]P[Ac5c][NMeV][NMeD]-Piperidide; lactam N-11) | 100 to 500 nM | 9.5 nM |
| CC[C@H](C)[C@@H]1NC(=O)[C@H](CC(F)(F)F)N(C)C(=O)C[C@@H](C(=O)N2CCOCC2)N(C)C(=O)[C@H](C2CCCCC2)N(C)C(=O)C2(CCCC2)NC(=O)[C@@H]2CCCN2C(=O)[C@H](CCc2ccc(C(F)(F)F)c(Cl)c2)NC(=O)CN(C)C(=O)[C@H](Cc2ccc(C)cc2)N(C)C(=O)CN(C)C(=O)CN(C)C1=O [Compound 1001] ([NMeAbu(4,4,4-F3)]I[Sar][Sar][NMePhe(4-Me)][Sar][hPhe(3-Cl-4-CF3)]P[Ac5c][NMeChg][NMeD]-Morpholide; lactam N-11) | 20 to 50 nM | 0.44 nM |
| CC[C@H](C)[C@@H]1NC(=O)[C@H](CC(C)C)N(C)C(=O)C[C@@H](C)NC(=O)[C@H](C2CCCC2)N(C)C(=O)C2(CCCC2)NC(=O)[C@@H]2CCCN2C(=O)[C@H](CCc2ccc(C(F)(F)F)c(Cl)c2)NC(=O)CN(C)C(=O)[C@H](Cc2ccc(C)cc2)N(C)C(=O)[C@@H]2CCN2C(=O)[C@H](C)N(C)C1=O [Compound 1537] (cyclo([Ac5c][NMeGly(cPent)][d(β3hA)][NMeL]I[NMeA][Aze][NMePhe(4-Me)][Sar][hPhe(3-Cl-4-CF3)]P)) | 50 to 100 nM | 3.9 nM |
| CCC[C@H]1C(=O)N[C@@H]([C@@H](C)CC)C(=O)N(C)CC(=O)N(C)CC(=O)N(C)[C@@H](CC2CCCCC2)C(=O)N(C)CC(=O)N[C@@H](CCc2ccc(C(F)(F)F)c(Cl)c2)C(=O)N2CCC[C@H]2C(=O)NC2(CCCC2)C(=O)N(C)[C@@H](C2CCCCC2)C(=O)N(C)[C@H](C(=O)N2CCOCC2)CC(=O)N1C [Compound 1996] ([NMeNva]I[Sar][Sar][NMeCha][Sar][hPhe(3-Cl-4-CF3)]P[Ac5c][NMeChg][NMeD]-Morpholide; lactam N-11) | 20 to 50 nM | 0.64 nM |
| CCCOC[C@H]1C(=O)N(C)CC(=O)N[C@@H](CCc2ccc(C(F)(F)F)c(Cl)c2)C(=O)N2CCC[C@H]2C(=O)NC2(CCCC2)C(=O)N(C)[C@@H](C2CCCCC2)C(=O)N(C)[C@H](C(=O)N2CCOCC2)CC(=O)N(C)[C@@H](CC)C(=O)N[C@@H]([C@@H](C)CC)C(=O)N(C)CC(=O)N(C)CC(=O)N1C [Compound 1896] ([NMeAbu]I[Sar][Sar][NMeS](Propyl)[Sar][hPhe(3-Cl-4-CF3)]P[Ac5c][NMeChg][NMeD]-Morpholide; lactam N-11) | 100 to 500 nM | 0.49 nM |
| CC[C@H](C)[C@@H]1NC(=O)[C@H](CC(C)C)N(C)C(=O)C[C@@H](C(=O)N(C)C)N(C)C(=O)[C@H](C2CCCC2)N(C)C(=O)C2(CCCC2)NC(=O)[C@H](COCCC(C)C)N(C)C(=O)[C@H](CCc2ccc(C(F)(F)F)c(Cl)c2)NC(=O)CN(C)C(=O)[C@H](CC2CCCCC2)N(C)C(=O)[C@@H]2CCN2C(=O)[C@H](C)N(C)C1=O [Compound 250] ([NMeL]I[NMeA][Aze][NMeCha][Sar][hPhe(3-Cl-4-CF3)][NMeS](Isopentyl)[Ac5c][NMeGly(cPent)][NMeD]-NMe2; lactam N-11) | 100 to 500 nM | 9.8 nM |
